Measurements from US8673320B2, “Metal-citrate transporter antigen from Streptomyces coelicolor and uses thereof” (Syracuse University, priority 2008, dated 2014).
Counter-ions that a name gives are not always drawn.

Columns and labels:
[1] = test system: Sccit; experiment: 1,5-[^14C]-citrate transport assay in E. coli expressing Sccit; assay type: cell-based, Streptomyces coelicolor; settings: E. coli AA93 Δfec or JW4251-2 ΔfecA, induced with 0.5 mM IPTG for 1 hour
Procedure: E. coli AA93 and JW4251-2 cultures were grown in LB as described above. Protein expression for transport assays was induced at 30.0° C. with 0.5 mM Isopropyl β-D-thiogalacto-pyranoside (IPTG) at an OD600 of 1.0 for 1 hour. Subsequent flux assays followed the protocol described above for S. coelicolor and previous literature protocol (A19) with the following adaptations: cells were resuspended with 10 mL of PIPES buffer at 6.5 for all metals, and the transport assay was conducted at 37.0° C. except for iron (25° C.). Non-induced controls were included in all runs. Concentration of metal ion and citrate were chosen to maximize the formation of the desired metal-citrate complex (see Table 2). Experiments were performed using at least three independent cultures and each time point was collected in triplicate per run. Incubation of the metal ion (except for Fe^3+ as described above) and pre-complexation of the metal with [^14C]-citrate prior to cell addition yielded similar results. Experiments were also conducted, specifically for Fe^3+-citrate uptake, involving reducing the IPTG induction temperature in E. coli down to 4° C. (see FIG. 5). This was to observe actual uptake of the iron complex.

[2] = test system: S. coelicolor; experiment: Growth of S. coelicolor in CHELEX-washed, metal-free SMMC broth; assay type: cell-based, Streptomyces coelicolor
Procedure: Streptomyces coelicolor A3(2) was obtained from a third party supplier and the American Type culture collection (BAA-471). S. coelicolor A3(2) stocks were grown in Yeast-Extract Malt Extract broth (YEME) at 28° C. in 125 mL baffled flasks to an Optical Density at 600 nm (OD600) of ˜2.0. 20% glycerol was added to the cells in a 1:1 volume ratio and the cells were chilled on ice for 1 hour and placed at −80° C. still in the ice container. After 24 hours the cells were taken out of the ice container and at −80° C. Streptomyces coelicolor was grown in Streptomyces Minimal Medium (SMM) broth for functional characterization studies. SMM was prepared as previously reported (A17) with the following modifications; L-asparagine was replaced with ammonium sulfate (1 g L^−1), agar was eliminated and either [56 mM] sodium citrate (SMMC) or [56 mM] glucose (SMMG) was added as the sole carbon source. 50 ml of SMMC or SMMG broths were inoculated with 1 ml of S. coelicolor A3(2) stock solutions and grown for 48-72 hrs at 28° C. and 300 rpm shaking in 125 mL baffled flasks.
In addition, growth of S. coelicolor was arrested in CHELEX-washed, metal-free SMMC broth. This arrest could be prevented by addition of Fe^3+ (or Ca^2+) but not Mg^2+ or Ni^2+ to SMMC.

[3] = test system: Streptomyces coelicolor A3(2); experiment: 1,5-[^14C]-citrate transport assay in whole cells, Streptomyces coelicolor A3(2); assay type: cell-based; settings: for uptake of citrate in the presence of metal ion: S. coelicolor grown in broth with citrate as sole carbon source (SMMC), PIPES pH 6.5, 4.4 μM citrate; for uptake of citrate or metal-citrate species above background: S. coelicolor grown with glucose (SMMG), for Fe^3+ SMMG supplemented with 36 μM FeCl3.6H2O
Procedure: S. coelicolor A3(2) cells were grown from stocks for 48-72 hours at 28° C. and 300 rpm. Cells were collected via centrifugation and washed twice with 50 mM chelexed piperazine-N,N′-bis(2-ethanesulfonic acid) (PIPES) buffer, pH 6.5. Cells were resuspended to an OD of 0.2 after the second wash. 100 μl of cells were added to 2.2 ml microcentrifuge tubes. 5 μl of metal as the chloride salt was then added from the following stock solution concentrations (220 mM CaCl2 or BaCl2, 22 mM MgCl2, NiCl2, 22 mM CoCl2, PbCl2, MnCl2 and 1.65 mM FeCl3). Different molar amounts of metals were used to maximize metal-citrate complex formation as per MINTEQ calculations (A12) and successfully used in a previous literature report (A19). Cells were then incubated at 30° C. for 8 minutes with shaking. At 8 minutes, 5 μl of 96.8 μM 1,5-[^14C]-citrate was added to each sample to provide a final concentration of 4.4 μM. Uptake was stopped by addition of 2 mL of 0.1 M LiCl. This was followed by immediate filtration through cellulose nitrate filters ([…], 2.1 cm diameter). The filters were washed with 2×2 mL of 0.1 M LiCl solution and radioactivity was recorded using a liquid scintillation counter. In every experimental run, background radioactivity was gauged by adding 2 mls of LiCl prior to addition of the radiolabelled citrate. As before, cells were then immediately filtered, washed with 2×2 mL of 0.1 M LiCl and radioactivity monitored. This served as the background and was subtracted from final data. Experiments were performed using at least three independent cultures and each time point was collected in triplicate per run. 4×100 μl of cells from each run were filtered directly through pre-weighed cellulose nitrate filter paper and dried to determine average cell sample weight. Transport assays were also ‘stopped’ using 10 mM HEPES-glucose buffer instead of 0.1 M LiCl to check for the occurrence of ‘leaking’, which has been postulated to occur with the use of LiCl (A22). No noticeable difference was observed across multiple cultures tested in either S. coelicolor (or E. coli as described below).
It is important to note that pre-incubating the ‘free’ metal prior to addition of ^14[C]-citrate or synthesizing the complex and then adding it to the cells made no difference to experimental results consistent with the work reported by Lolkema et al. (A19), except in the case of Fe^3+. Transport assays with Fe^3+ were performed at 25.0° C. with the metal precomplexed to [^14C]-citrate to prevent Fe^3+ precipitation in the aqueous buffer. The temperature and pH change were accounted for in MINTEQ calculations. All experiments using precomplexed mixtures were filtered using a 0.45 μm syringe filter (Fisher Scientific) prior to addition to cells.

[Ni+2] [Ni^2+]
uptake of 1,5-[^14C]-citrate with metal ion cofactor [1]: did not result in citrate uptake | prevention of growth arrest by addition of metal ion [2]: not | uptake of citrate in the presence of metal ion [3]: no greater than the rate of uptake without metal ions | uptake of citrate or metal-citrate species above background [3]: No uptake

[Co+2] [Co^2+]
uptake of 1,5-[^14C]-citrate with metal ion cofactor [1]: did not result in citrate uptake | uptake of citrate in the presence of metal ion [3]: no greater than the rate of uptake without metal ions | uptake of citrate or metal-citrate species above background [3]: No uptake

O=C(O)CC(O)(CC(=O)O)C(=O)O [free citrate]
uptake of 1,5-[^14C]-citrate with metal ion cofactor [1]: not transported | uptake of citrate in the presence of metal ion [3]: no uptake | uptake of citrate or metal-citrate species above background [3]: No uptake

[Mg+2] [Mg^2+]
uptake of 1,5-[^14C]-citrate with metal ion cofactor [1]: did not result in citrate uptake | prevention of growth arrest by addition of metal ion [2]: not | uptake of citrate in the presence of metal ion [3]: no greater than the rate of uptake without metal ions | uptake of citrate or metal-citrate species above background [3]: No uptake

O=C(O)CN(CCOCCOCCN(CC(=O)O)CC(=O)O)CC(=O)O [EGTA, ethylene glycol tetraacetic acid, reference compound]
EGTA concentration at which citrate uptake decreased to zero ([3]; in the presence of 10 mM Ca^2+): over 1 mM

[Ba+2] [Ba^2+]
uptake of citrate or metal-citrate species above background [3]: No uptake

[Pb+2] [Pb^2+]
uptake of 1,5-[^14C]-citrate with metal ion cofactor [1]: uptake of 1,5-[^14C]-citrate observed | uptake of citrate or metal-citrate species above background [3]: No uptake

[Fe+3] [Fe^3+]
uptake of 1,5-[^14C]-citrate with metal ion cofactor [1]: uptake of 1,5-[^14C]-citrate observed | prevention of growth arrest by addition of metal ion [2]: prevented | uptake of citrate in the presence of metal ion [3]: uptake was dependent on the presence | uptake of citrate or metal-citrate species above background [3]: significant uptake

O=C([O-])CC(O)(CC(=O)[O-])C(=O)[O-].[Fe+3] [Fe^3+-citrate]
Fe^3+-citrate uptake, iron absent from growth broth ([3]; S. coelicolor grown in SMM containing glucose, no iron in broth): greatly reduced

[Ca+2] [Ca^2+]
uptake of 1,5-[^14C]-citrate with metal ion cofactor [1]: uptake of 1,5-[^14C]-citrate observed | prevention of growth arrest by addition of metal ion [2]: prevented | uptake of citrate or metal-citrate species above background [3]: No uptake
